Source: patent US9512425B2, “Inhibiting migration of cancer cells” (Cornell University, priority 2012, dated 2016)

Experiments:
[1] = tested on: metastatic prostate cancer cells PC3; experiment: Migration of PC3 cells with ectopic miR-708; type: cell-based, human; settings: ectopic expression of miR-708 in PC3
Ntrk2 3'-UTR = experiment: 3'-UTR dual luciferase assay; type: cell-based; settings: 293T cells, Renilla/Firefly ratio
Experimental: (§1) The 3′-UTR of a gene of interest was amplified by PCR and cloned into a pmirGLO Dual-Luciferase miRNA Target Expression Vector (Promega). To express miRNA, synthetic premiRNA precursor for miR-708 and control scrambled miRNA were purchased from Applied Biosystems (Ambion). The miRNA precursor and pmirGLO Dual-Luciferase 3′-UTR vector were co-transfected into […] cells using the siPORT NeoFX Transfection Agent following manufacturer's instructions (Ambion). Cells were harvested and lysed at 48 hr post-transfection. The interaction between miR-708 and target 3′-UTR was measured by Dual-luciferase assay system (Promega).

CD44 3'-UTR = experiment: 3'-UTR dual luciferase assay; type: cell-based; settings: 293T cells, Renilla/Firefly ratio
Experimental: as §1

Gon4l 3'-UTR = experiment: 3'-UTR dual luciferase assay; type: cell-based; settings: 293T cells, Renilla/Firefly ratio
Experimental: as §1

miR-708: microRNA, mature sequence 5'-AAGGAGCUUACAAUCUAGCUGGG-3' (SEQ ID NO: 2); expressed from lentiviral vector or used as synthetic precursor
migration [1]: suppressed migration
repression of 3'-UTR luciferase reporter (Ntrk2 3'-UTR): significant repression
repression of 3'-UTR luciferase reporter (CD44 3'-UTR): significant repression
repression of 3'-UTR luciferase reporter (Gon4l 3'-UTR): significant repression
